# Experimental data from ChEMBL document CHEMBL1201862, “PubChem BioAssay data set” (2004).
#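 All cell lines were grown in 96-well plates and treated with compound for 48 hours. The concentration for 50% growth inhibition is given as GI50.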 The source made the active and inactive calls. No stated cut-off is given here; in the data, active = GI50 up to about 1.1 µM and inactive = higher. Where a SMILES comes first, the peptide text is derived from it. [ ]: non-standard residue; d: D form. The star is where a group is joined. Bn2Val = CC(C)[C@@H](C(=O)*)N(Cc1ccccc1)Cc1ccccc1; NH(4-F-benzyl) = Fc1ccc(CN*)cc1; NMeV = CN[C@H](C(=O)O)C(C)C; dNMeA = CN[C@H](C)C(=O)O
# Experiments:
# Experiment in all cases: inhibition of tumour cell growth, NCI panel, 48 h
# HOP-62 = tested on: HOP-62
# HT-29 = tested on: HT-29
# SNB-75 = tested on: SNB-75
# NCI/ADR-RES = tested on: NCI/ADR-RES
# A498 = tested on: A498
# MOLT-4 = tested on: MOLT-4
# BT-549 = tested on: BT-549
# NCI-H460 = tested on: NCI-H460
# HL-60 = tested on: HL-60
# MCF7 = tested on: MCF7
# Hs-578T = tested on: Hs-578T
# UACC-62 = tested on: UACC-62
# MDA-MB-435 = tested on: MDA-MB-435
# SNB-19 = tested on: SNB-19
# T47D = tested on: T47D
# EKVX = tested on: EKVX
# SF-295 = tested on: SF-295
# HCC 2998 = tested on: HCC 2998
# HCT-15 = tested on: HCT-15
SMILES,GI50 (HOP-62),GI50 (HT-29),GI50 (SNB-75),GI50 (NCI/ADR-RES),GI50 (A498),GI50 (MOLT-4),GI50 (BT-549),GI50 (NCI-H460),GI50 (HL-60),GI50 (MCF7),GI50 (Hs-578T),GI50 (UACC-62),GI50 (MDA-MB-435),GI50 (SNB-19),GI50 (T47D),GI50 (EKVX),GI50 (SF-295),GI50 (HCC 2998),GI50 (HCT-15) [µM]
Nc1ncnc2c1nc(Cl)n2C1OC(CO)C(O)C1O (stereo unspecified),8.28 µM (inactive),0.649 µM (active),1.49 µM (inactive),1.41 µM (inactive),4.52 µM (inactive),0.474 µM (active),3.15 µM (inactive),0.414 µM (active),0.181 µM (active),0.562 µM (active),15.3 µM (inactive),0.966 µM (active),2.21 µM (inactive),22.1 µM (inactive),0.574 µM (active),5.7 µM (inactive),5.11 µM (inactive),0.556 µM (active),0.283
CCOP(=O)(OCC)/C(C#N)=C/c1c[nH]c2ccccc12,> 100 µM (inactive),> 100 µM (inactive),> 100 µM (inactive),53 µM (inactive),> 100 µM (inactive),,57.9 µM (inactive),> 100 µM (inactive),> 100 µM (inactive),> 100 µM (inactive),> 100 µM (inactive),> 100 µM (inactive),> 100 µM (inactive),> 100 µM (inactive),> 100 µM (inactive),> 100 µM (inactive),> 100 µM (inactive),> 100 µM (inactive),> 100
CC1=NN=C(C)C1/N=N/c1ccc2[nH]c(C)nc2c1,26.4 µM (inactive),16 µM (inactive),22.9 µM (inactive),38.4 µM (inactive),8.39 µM (inactive),13.7 µM (inactive),20.8 µM (inactive),11 µM (inactive),10.8 µM (inactive),28.7 µM (inactive),5.36 µM (inactive),14.9 µM (inactive),16.2 µM (inactive),> 100 µM (inactive),5.11 µM (inactive),18.7 µM (inactive),17.9 µM (inactive),58.7 µM (inactive),6.68
COc1ccc2[nH]c3c(C)c4ccnc(NCCCN(C)CCCNC(=O)NCCCN(C)CCCNc5nccc6c(C)c7[nH]c8ccc(OC)cc8c7c(C)c56)c4c(C)c3c2c1,0.419 µM (active),0.245 µM (active),0.402 µM (active),2.14 µM (inactive),1.39 µM (inactive),0.236 µM (active),1.62 µM (inactive),0.348 µM (active),0.147 µM (active),0.164 µM (active),0.977 µM (active),1.33 µM (inactive),0.466 µM (active),0.264 µM (active),0.69 µM (active),0.925 µM (active),0.566 µM (active),0.265 µM (active),1.26
CC(C)[C@H](NC(=O)[C@H](C(C)C)N(Cc1ccccc1)Cc1ccccc1)C(=O)N(C)[C@H](C(=O)N1CCC[C@H]1C(=O)N(C)[C@H](C)C(=O)NCc1ccc(F)cc1)C(C)C (Bn2Val-V[NMeV]P[dNMeA]-{NH(4-F-benzyl)}),5.47 µM (inactive),1.95 µM (inactive),4.07 µM (inactive),4.38 µM (inactive),2.42 µM (inactive),2.55 µM (inactive),4.06 µM (inactive),4 µM (inactive),2.54 µM (inactive),2.72 µM (inactive),4.5 µM (inactive),2.96 µM (inactive),3.67 µM (inactive),4.88 µM (inactive),3.82 µM (inactive),3.09 µM (inactive),3.44 µM (inactive),3.48 µM (inactive),3.79
Cc1cccc(C2ON=C(c3ccccc3)N2C23CC4CC(CC(C4)C2)C3)c1 (stereo unspecified),> 10 µM (inactive),> 10 µM (inactive),7.28 µM (inactive),> 10 µM (inactive),> 10 µM (inactive),> 10 µM (inactive),> 10 µM (inactive),> 10 µM (inactive),> 10 µM (inactive),3.6 µM (inactive),> 10 µM (inactive),> 10 µM (inactive),> 10 µM (inactive),> 10 µM (inactive),> 10 µM (inactive),> 10 µM (inactive),> 10 µM (inactive),> 10 µM (inactive),> 10
O=C1/C(=C\c2ccc([N+](=O)[O-])cc2)CS(=O)(=O)C/C1=C/c1ccc([N+](=O)[O-])cc1,1.23 µM (inactive),0.357 µM (active),15.5 µM (inactive),0.161 µM (active),1.79 µM (inactive),,0.316 µM (active),0.515 µM (active),0.324 µM (active),0.303 µM (active),1.35 µM (inactive),0.198 µM (active),0.358 µM (active),3.24 µM (inactive),0.962 µM (active),1.21 µM (inactive),1.74 µM (inactive),0.247 µM (active),0.117
O=C(NCCCCl)c1c(O)c2ccccc2[nH]c1=O,> 50.6 µM (inactive),> 100 µM (inactive),> 54.5 µM (inactive),> 71 µM (inactive),32.4 µM (inactive),> 100 µM (inactive),> 78 µM (inactive),> 100 µM (inactive),> 100 µM (inactive),> 91.8 µM (inactive),> 56.8 µM (inactive),> 50.9 µM (inactive),> 100 µM (inactive),> 100 µM (inactive),> 73.3 µM (inactive),50.6 µM (inactive),> 48.9 µM (inactive),> 76.2 µM (inactive),> 100
OC(c1cccnc1)C(F)(F)c1nc2ccccc2o1 (stereo unspecified),> 100 µM (inactive),> 100 µM (inactive),> 100 µM (inactive),> 100 µM (inactive),49.9 µM (inactive),> 100 µM (inactive),> 100 µM (inactive),> 100 µM (inactive),> 100 µM (inactive),> 100 µM (inactive),> 100 µM (inactive),> 100 µM (inactive),> 100 µM (inactive),> 100 µM (inactive),> 100 µM (inactive),> 100 µM (inactive),,> 100 µM (inactive),> 100
CN(C)c1c(C2CC(O)C(CO)O2)c(=O)c1=O (stereo unspecified),> 100 µM (inactive),> 100 µM (inactive),> 100 µM (inactive),> 100 µM (inactive),> 100 µM (inactive),> 100 µM (inactive),> 100 µM (inactive),> 100 µM (inactive),> 100 µM (inactive),> 100 µM (inactive),> 100 µM (inactive),> 100 µM (inactive),> 100 µM (inactive),> 100 µM (inactive),> 100 µM (inactive),> 100 µM (inactive),> 100 µM (inactive),> 100 µM (inactive),> 100
O=C(O)c1cc2ccccc2c(O)c1O,18.9 µM (inactive),23.2 µM (inactive),17.9 µM (inactive),19.4 µM (inactive),26.9 µM (inactive),27.5 µM (inactive),16.1 µM (inactive),22.9 µM (inactive),19.4 µM (inactive),13.5 µM (inactive),8.13 µM (inactive),5.98 µM (inactive),1.85 µM (inactive),17.9 µM (inactive),25.8 µM (inactive),23.4 µM (inactive),15.3 µM (inactive),18.8 µM (inactive),19.7
